Each structure is given as a SMILES string. pIC50: −log10 of the molar value.

T1 sequence (P28845 whole entry): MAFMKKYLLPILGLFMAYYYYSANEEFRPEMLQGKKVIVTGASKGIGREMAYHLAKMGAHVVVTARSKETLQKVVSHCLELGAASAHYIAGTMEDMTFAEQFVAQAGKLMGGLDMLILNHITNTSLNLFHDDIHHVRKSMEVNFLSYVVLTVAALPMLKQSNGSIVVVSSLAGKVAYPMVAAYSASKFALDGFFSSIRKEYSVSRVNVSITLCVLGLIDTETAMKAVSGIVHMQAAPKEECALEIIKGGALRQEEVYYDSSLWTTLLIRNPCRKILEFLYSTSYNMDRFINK

This experiment concerns the target T1, recombinant human 11 β-HSD1 (Homo sapiens, UniProt P28845).
T1 construct: made in house; host or cells: E. coli
The experiment in a line: 11 β-HSD1 SPA Assay (Scintillation Proximity Assay). The class given is biochemical. A digest of the protocol: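 E. coli-expressed human enzyme (30-100 nM) with tritiated cortisone 40 nM and NADPH 1 mM in HEPES buffer pH7.4, 2 hours at room temperature. Stopped with protein A SPA beads carrying anti-cortisol antibody and glycyrrhetinic acid; counted after overnight incubation. IC50 from percent inhibition between no-enzyme and no-compound signals.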
`CC(C)(Oc1ncc(Cl)cc1Cl)C(=O)NC1CC2CCC(C1)N2c1ccc(C(=O)NC2CC2(F)F)cn1` (stereo not drawn) [Example 399, 6-(3-endo-(2-(3,5-dichloropyridin-2-yloxy)-2-methylpropanamido)-8-azabicyclo[3.2.1]octan-8-yl)-N-(2,2-difluorocyclopropyl) nicotinamide]: the pIC50 was > 6.70. As for `CC(C)(Oc1cc(F)c(C(C)(C)O)cc1Cl)C(=O)N[C@H]1C[C@H]2CC[C@@H](C1)N2c1ccc(C(=O)NCC(F)F)cn1` [Example 304, 6-[3-endo-({2-[2-chloro-5-fluoro-4-(2-hydroxypropan-2-yl)phenoxy]-2-methylpropanoyl}amino)-8-azabicyclo[3.2.1]oct-8-yl]-N-(2,2-difluoroethyl)pyridine-3-carboxamide], the pIC50 is > 6.70. The figure for `CC(C)(Oc1ccc(Cl)cc1Cl)C(=O)N[C@H]1C[C@H]2CC[C@@H](C1)N2c1ccc(NC(=O)NCC(F)(F)F)cn1` [Example 134, 2-[(2,4-dichlorophenyl)oxy]-2-methyl-N-{8-[5-({[(2,2,2-trifluoroethyl)amino]carbonyl}amino)pyridin-2-yl]-8-azabicyclo[3.2.1]oct-3-endo-yl}propanamide] is > 6.70; for `CC(C)(Oc1ccc(Cl)c(C(F)(F)F)c1)C(=O)N[C@H]1C[C@H]2CC[C@@H](C1)N2c1ccc(C(=O)NCC(F)(F)F)cn1` [Example 186, 6-{3-endo-[(2-{[4-chloro-3-(trifluoromethyl)phenyl]oxy}-2-methylpropanoyl)amino]-8-azabicyclo[3.2.1]oct-8-yl}-N-(2,2,2-trifluoroethyl)pyridine-3-carboxamide] it is > 6.70; for `CC(C)(O)CNC(=O)c1ccc(N2[C@@H]3CC[C@H]2C[C@@H](NC(=O)C(C)(C)Oc2cc(C(C)(C)O)c(Cl)cc2Cl)C3)nc1` [Example 336, 6-[3-endo-({2-[2,4-dichloro-5-(2-hydroxypropan-2-yl)phenoxy]-2-methylpropanoyl}amino)-8-azabicyclo[3.2.1]oct-8-yl]-N-(2-hydroxy-2-methylpropyl)pyridine-3-carboxamide] it is > 6.70.

Consider `CC(C)(Oc1ccc(Cl)cc1Cl)C(=O)N[C@H]1C[C@H]2CC[C@@H](C1)N2c1ccc(C(=O)NCCN2CCCC2)cn1` [Example 340, 6-(3-endo-{[2-(2,4-dichlorophenoxy)-2-methylpropanoyl]amino}-8-azabicyclo[3.2.1]oct-8-yl)-N-[2-(pyrrolidin-1-yl)ethyl]pyridine-3-carboxamide], for which the negative logarithm of the IC50 (pIC50) was > 6.70. `CC(C)(Oc1ccc(Cl)cc1OC(F)(F)F)C(=O)NC1CC2CCC(C1)N2c1ccc(C(=O)NC2CC2(F)F)cn1` (stereo not drawn) [Example 394, 6-[3-endo-({2-[4-chloro-2-(trifluoromethoxy)phenoxy]-2-methylpropanoyl}amino)-8-azabicyclo[3.2.1]oct-8-yl]-N-(2,2-difluorocyclopropyl)pyridine-3-carboxamide]: the pIC50 was > 6.70. On to `CC(C)NC(=O)c1ccc(N2[C@@H]3CC[C@H]2C[C@@H](NC(=O)C(C)(C)Oc2ccc(Cl)c(F)c2)C3)nc1` [Example 84, 6-[3-endo-({2-[(4-chloro-3-fluorophenyl)oxy]-2-methylpropanoyl}amino)-8-azabicyclo[3.2.1]oct-8-yl]-N-(1-methylethyl)pyridine-3-carboxamide], for which the pIC50 is > 6.70. In the case of `CN(C)S(=O)(=O)c1cc(Cl)ccc1OC(C)(C)C(=O)N[C@H]1C[C@H]2CC[C@@H](C1)N2c1ccc(C(=O)NCC(F)(F)F)cn1` [Example 351, 6-[3-endo-({2-[4-chloro-2-(dimethylsulfamoyl)phenoxy]-2-methylpropanoyl}amino)-8-azabicyclo[3.2.1]oct-8-yl]-n-(2,2,2-trifluoroethyl)pyridine-3-carboxamide] it was > 6.70; in that of `CC(C)(Oc1cc(C(F)(F)F)ccc1F)C(=O)N[C@H]1C[C@H]2CC[C@@H](C1)N2c1ccc(C(N)=O)cn1` [Example 189, 6-{3-endo-[(2-{[2-fIuoro-5-(trifluoromethyl)phenyl]oxy}-2-methylpropanoyl)amino]-8-azabicyclo[3.2.1]oct-8-yl}pyridine-3-carboxamide], > 6.70. The figure for `CC(C)(Oc1ccc(F)cc1C(F)(F)F)C(=O)N[C@H]1C[C@H]2CC[C@@H](C1)N2c1ccc(S(N)(=O)=O)cn1` [Example 177, N-{8-[5-(aminosulfonyl)pyridin-2-yl]-8-azabicyclo[3.2.1]oct-3-endo-yl}-2-{[4-fluoro-2-(trifluoromethyl)phenyl]oxy}-2-methylpropanamide] is > 6.70; for `CC(C)(Oc1ccc(Cl)cc1)C(=O)N[C@H]1C[C@H]2CC[C@@H](C1)N2c1ccc(C(=O)NCC(F)(F)F)cn1` [Example 27, 6-[3-endo-({2-[(4-chlorophenyl)oxy]-2-methylpropanoyl}amino)-8-azabicyclo[3.2.1]oct-8-yl]-N-(2,2,2-trifluoroethyl)pyridine-3-carboxamide] it is > 6.70.

In the case of `CC(C)(Oc1ccc(Cl)cc1Cl)C(=O)N[C@H]1C[C@H]2CC[C@@H](C1)N2c1ccc(NC(=O)NCC(F)(F)F)cc1Cl` [Example 136, N-{8-[2-chloro-4-({[(2,2,2-trifluoroethyl)amino]carbonyl}amino)phenyl]-8-azabicyclo[3.2.1]oct-3-endo-yl}-2-[(2,4-dichlorophenyl)oxy]-2-methylpropanamide], the pIC50 is > 5.70. The figure for `CC(C)(Oc1ccc(F)cc1F)C(=O)N[C@H]1C[C@H]2CC[C@@H](C1)N2c1ccc(S(C)(=O)=O)cc1` [Example 224, 2-[(2,4-difluorophenyl)oxy]-2-methyl-N-{8-[4-(methylsulfonyl)phenyl]-8-azabicyclo[3.2.1]oct-3-endo-yl}propanamide] is > 6.70. Turning to `CC(C)(Oc1c(F)cc(F)cc1F)C(=O)N[C@H]1C[C@H]2CC[C@@H](C1)N2c1ccc(S(N)(=O)=O)cn1` [Example 259, N-{8-[5-(aminosulfonyl)pyridin-2-yl]-8-azabicyclo[3.2.1]oct-3-endo-yl}-2-methyl-2-[(2,4,6-trifluorophenyl)oxy]propanamide], the pIC50 was > 6.70. The figure for `CC(C)(Oc1ccc(F)cc1C(F)(F)F)C(=O)N[C@H]1C[C@H]2CC[C@@H](C1)N2c1ccc(C(=O)NCC(F)(F)F)cn1` [Example 145, 6-{3-endo-[(2-{[4-fluoro-2-(trifluoromethyl)phenyl]oxy}-2-methylpropanoyl)amino]-8-azabicyclo[3.2.1]oct-8-yl}-N-(2,2,2-trifluoroethyl)pyridine-3-carboxamide] is > 6.70. `C[C@@H](NC(=O)c1ccc(N2C3CCC2CC(NC(=O)C(C)(C)Oc2ccc(Cl)cc2C(F)(F)F)C3)nc1)C(F)(F)F` (stereo partly drawn) [Example 412, 6-(3-endo-(2-(4-chloro-2-(trifluoromethyl)phenoxy)-2-methylpropanamido)-8-azabicyclo[3.2.1]octan-8-yl)-N-((R)-1,1,1-trifluoropropan-2-yl)nicotinamide]: the pIC50 is > 6.70.

In the case of `CC(C)(Oc1ncc(Cl)cc1Cl)C(=O)N[C@H]1C[C@H]2CC[C@@H](C1)N2c1ccc(S(C)(=O)=O)cc1` [Example 175, 2-[(3,5-dichloropyridin-2-yl)oxy]-2-methyl-N-{8-[4-(methylsulfonyl)phenyl]-8-azabicyclo[3.2.1]oct-3-endo-yl}propanamide], the pIC50 is > 6.70. In the case of `CC(Oc1ccc(Cl)cc1)C(=O)N[C@H]1C[C@H]2CC[C@@H](C1)N2c1ccc(C(=O)NC2CC2)cn1` (stereo partly drawn) [Example 49, 6-[3-endo-({2-[(4-chlorophenyl)oxy]propanoyl}amino)-8-azabicyclo[3.2.1]oct-8-yl]-N-cyclopropylpyridine-3-carboxamide], the negative-log IC50 (pIC50) is > 5.70.

For the molecule `CS(=O)(=O)c1ccc(N2[C@@H]3CC[C@H]2C[C@@H](NC(=O)C2(c4ccc(F)c(C(F)(F)F)c4)CC2)C3)nc1` [Example 280, 1-[4-fluoro-3-(trifluoromethyl)phenyl]-N-{8-[5-(methylsulfonyl)pyridin-2-yl]-8-azabicyclo[3.2.1]oct-3-endo-yl}cyclopropanecarboxamide], the pIC50 is > 5.70.

As for `CC(C)(Oc1ccc(Cl)cc1C(F)(F)F)C(=O)N[C@H]1C[C@H]2CC[C@@H](C1)N2c1ccc(S(N)(=O)=O)cn1` [Example 211, N-{8-[5-(aminosulfonyl)pyridin-2-yl]-8-azabicyclo[3.2.1]oct-3-endo-yl}-2-{[4-chloro-2-(trifluoromethyl)phenyl]oxy}-2-methylpropanamide], the negative-log IC50 (pIC50) was > 6.70. Turning to `CC(C)(Oc1ccc(Cl)c(F)c1)C(=O)N[C@H]1C[C@H]2CC[C@@H](C1)N2c1ccc(C(=O)NC2CC2)cn1` [Example 43, 6-[3-endo-({2-[(4-chloro-3-fluorophenyl)oxy]-2-methylpropanoyl}amino)-8-azabicyclo[3.2.1]oct-8-yl]-N-cyclopropylpyridine-3-carboxamide], the negative-log IC50 (pIC50) is > 6.70. The figure for `CC(C)(Oc1ccc(Cl)cc1Cl)C(=O)N[C@H]1C[C@H]2CC[C@@H](C1)N2c1ccc(C(=O)NC2COC2)cn1` [Example 317, 6-[3-endo-({2-[(2,4-dichlorophenyl)oxy]-2-methylpropanoyl}amino)-8-azabicyclo[3.2.1]oct-8-yl]-N-oxetan-3-ylpyridine-3-carboxamide] is > 6.70.

With `CS(=O)(=O)c1cccc(C2(C(=O)N[C@H]3C[C@H]4CC[C@@H](C3)N4c3ccc(S(N)(=O)=O)cn3)CC2)c1` [Example 313, N-{8-[5-(aminosulfonyl)pyridin-2-yl]-8-azabicyclo[3.2.1]oct-3-endo-yl}-1-[3-(methylsulfonyl)phenyl]cyclo-propanecarboxamide], the pIC50 was > 5.70.

`CC(C)(Oc1cccc2[nH]ccc12)C(=O)N[C@H]1C[C@H]2CC[C@@H](C1)N2c1ccc(C(=O)NCC(F)(F)F)cn1` [Example 366, 6-(3-endo-{[2-(1h-indol-4-yloxy)-2-methylpropanoyl]amino}-8-azabicyclo[3.2.1]oct-8-yl)-N-(2,2,2-trifluoroethyl)pyridine-3-carboxamide]: the pIC50 was > 6.70.
